Among the data in patent US20250051347A1, “BIFUNCTIONAL CHIMERIC HETEROCYCLIC COMPOUND AND USE THEREOF AS ANDROGEN RECEPTOR DEGRADER” (Hinova Pharmaceuticals, Inc., priority 2021, published 2025) are DC50 values, retold here.

The assay concerns the target T1, androgen receptor (AR) splicing variant AR-v7 (Homo sapiens, UniProt P10275).
T1 construct: The degradation activity of compounds on AR-v7 in 22RV1 cells; host or cells: 22RV1 cells
T1 sequence (P10275 1-644 isoform P10275-3): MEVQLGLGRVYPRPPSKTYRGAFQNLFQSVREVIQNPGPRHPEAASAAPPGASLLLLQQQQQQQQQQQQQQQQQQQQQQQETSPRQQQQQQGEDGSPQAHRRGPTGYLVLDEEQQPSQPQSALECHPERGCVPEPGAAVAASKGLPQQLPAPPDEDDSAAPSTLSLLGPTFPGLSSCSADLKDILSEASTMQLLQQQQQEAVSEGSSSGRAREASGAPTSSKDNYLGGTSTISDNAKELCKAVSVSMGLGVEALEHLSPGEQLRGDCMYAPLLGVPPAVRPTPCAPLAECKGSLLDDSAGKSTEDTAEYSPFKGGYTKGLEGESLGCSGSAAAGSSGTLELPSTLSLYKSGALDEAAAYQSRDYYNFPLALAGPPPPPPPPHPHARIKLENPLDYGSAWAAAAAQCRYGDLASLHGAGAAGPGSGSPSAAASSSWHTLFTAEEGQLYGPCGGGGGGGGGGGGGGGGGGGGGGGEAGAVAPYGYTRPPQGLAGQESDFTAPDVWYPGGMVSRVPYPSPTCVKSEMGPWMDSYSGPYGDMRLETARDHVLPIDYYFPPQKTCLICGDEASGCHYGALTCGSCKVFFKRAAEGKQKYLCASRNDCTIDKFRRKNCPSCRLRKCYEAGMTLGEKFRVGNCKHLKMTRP
The experiment in a line: Degradation activity on androgen receptor splicing variant AR-v7 in 22RV1 cells (ELISA). Type of assay: cell-based. The following applies: AR-v7 degradation in 22RV1 cells, 48 h, class symbols. Background: An ELISA detects its analyte on a solid surface through an enzyme-linked reagent.
By DC50 is commonly meant the midpoint of the concentration-degradation curve. Higher therefore signals a less potent degrader. `CC(COc1ccc(C(C)(C)c2ccc(OCc3ccnc(N4CC5(COC5)C4)n3)cc2)cc1)Nc1ccc2c(c1)C(=O)N(C1CCC(=O)NC1=O)C2=O` (centres unmarked) [Example 151, 5-((1-(4-(2-(4-((2-(2-oxa-6-azaspiro[3.3]heptan-6-yl)pyrimidin-4-yl)methoxy)phenyl)propan-2-yl)phenoxy)propan-2-yl)amino)-2-(2,6-dioxopiperidin-3-yl)isoindolin-1,3-dione] showed a half-maximal degradation concentration (DC50) of 11 to 100 nM.

As to `CC(C)(c1ccc(OCc2ccnc(N3CC4(COC4)C3)n2)cc1)c1ccc(OC2CCCC[C@H]2Nc2ccc3c(c2)C(=O)N(C2CCC(=O)NC2=O)C3=O)cc1` (some centres unmarked) [Example 152], the 50% degradation concentration (DC50) was 1000 to 5000 nM.

`CC(C)(c1ccc(OCc2ccnc(N3CC4(COC4)C3)n2)cc1)c1ccc(O[C@H]2CC[C@@H](Nc3ccc4c(c3)C(=O)N(C3CCC(=O)NC3=O)C4=O)CC2)cc1` (some centres unmarked) [Example 153, 5-(((1s,4s)-4-(4-(2-(4-((2-(2-oxa-6-azaspiro[3.3]heptan-6-yl)pyrimidin-4-yl)methoxy)phenyl)propan-2-yl)phenoxy)cyclohexyl)amino)-2-(2,6-dioxopyridin-3-yl)isoindolin-1,3-dione] gave a DC50 of 101 to 1000 nM.

The molecule `CC(C)(c1ccc(Oc2ncc(F)c(N3CC4(COC4)C3)n2)cc1)c1ccc(O[C@H]2C[C@@H](Nc3ccc4c(c3)C(=O)N(C3CCC(=O)NC3=O)C4=O)C2)cc1` (some centres unmarked) [Example 157] returned a DC50 of 11 to 100 nM.

On to `CC(C)(c1ccc(Oc2nc(N3CC4(COC4)C3)ncc2F)cc1)c1ccc(O[C@H]2C[C@@H](Nc3ccc4c(c3)C(=O)N(C3CCC(=O)NC3=O)C4=O)C2)cc1` (some centres unmarked) [Example 158], for which the DC50 was in the range of 11 to 100 nM.

Molecule `CC(C)(c1ccc(Oc2cncc(N3CC4(COC4)C3)n2)cc1)c1ccc(O[C@H]2C[C@@H](Nc3ccc4c(c3)C(=O)N(C3CCC(=O)NC3=O)C4=O)C2)cc1` (some centres unmarked) [Example 159] registered a DC50 of 11 to 100 nM.

`CC(C)(c1ccc(Oc2ccnc(-n3ccnn3)c2)cc1)c1ccc(O[C@H]2C[C@H](Nc3ccc4c(c3)C(=O)N(C3CCC(=O)NC3=O)C4=O)C2)cc1` (some centres unmarked) [Example 163, 5-((1r,3r)-3-(4-(2-(2-(4-((1H-1,2,3-triazol-2-yl)pyridin-4-yl)oxy)phenyl)propan-2-ylphenoxy)cyclobutyl)amino)-2-(2,6-dioxopiperidin-3-yl)isoindolin-1,3-dione]: the 50% degradation concentration (DC50) fell in the range of 11 to 100 nM.

In turn, `CC(C)(c1ccc(Oc2cc(-n3nccn3)ccn2)cc1)c1ccc(O[C@H]2C[C@H](Nc3ccc4c(c3)C(=O)N(C3CCC(=O)NC3=O)C4=O)C2)cc1` (some centres unmarked) [Example 165, 5-(((1r,3r)-3-(4-(2-((4-(2H-1,2,3-triazol-2-yl)pyridin-2-yl)oxy)phenyl)propan-2-ylphenoxy)cyclobutyl)amino)-2-(2,6-dioxopyridin-3-yl)isoindol-1,3-dione] showed a DC50 of 11 to 100 nM.

The molecule `Cc1nc(-c2cc(Oc3ccc(C(C)(C)c4ccc(O[C@H]5C[C@H](Nc6ccc7c(c6)C(=O)N(C6CCC(=O)NC6=O)C7=O)C5)cc4)cc3)ccn2)no1` (some centres unmarked) [Example 167, 2-(2,6-dioxopyridin-3-yl)-5-(((1r,3r)-3-(4-(2-((4-(2-(5-methyl-1,2,4-oxadiazol-3-yl)pyridin-4-yl)oxy)phenyl)propan-2-yl)phenoxy)cyclobutyl)amino) isoindolin-1,3-dione] registered a DC50 of 11 to 100 nM.

Consider `Cc1nc(-c2cc(Oc3ccc(C(C)(C)c4ccc(O[C@H]5C[C@@H](Nc6ccc7c(c6)C(=O)N(C6CCC(=O)NC6=O)C7=O)C5)cc4)cc3)ccn2)no1` (some centres unmarked) [Example 174, 2-(2,6-dioxopyridin-3-yl)-5-(((1s,3s)-3-(4-(2-(4-((2-(5-methyl-1,2,4-oxadiazol-3-yl)pyridin-4-yl)oxy)phenyl)propan-2-yl)phenoxy)cyclobutyl)amino) isoindolin-1,3-dione], for which the half-maximal degradation concentration (DC50) fell in the range of 11 to 100 nM.

In turn, `Cc1nc(-c2ncc(Oc3ccc(C(C)(C)c4ccc(N5CCC56CN(c5ccc7c(c5)C(=O)N(C5CCC(=O)NC5=O)C7=O)C6)cc4)cc3)cn2)no1` (centres unmarked) [Example 179, 2-(2,6-dioxopiperidin-3-yl)-5-(1-(4-(2-(4-((2-(5-methyl-1,2,4-oxadiazol-3-yl)pyrimidin-5-yl)oxy)phenyl)propan-2-yl)phenyl)-1,6-diazaspiro[3.3]heptan-6-yl)isoindolin-1,3-dione] had a DC50 of 101 to 1000 nM.
